target: Histamine H3 receptor (Homo sapiens, UniProt Q9Y5N1)
Sequence (Q9Y5N1 whole entry): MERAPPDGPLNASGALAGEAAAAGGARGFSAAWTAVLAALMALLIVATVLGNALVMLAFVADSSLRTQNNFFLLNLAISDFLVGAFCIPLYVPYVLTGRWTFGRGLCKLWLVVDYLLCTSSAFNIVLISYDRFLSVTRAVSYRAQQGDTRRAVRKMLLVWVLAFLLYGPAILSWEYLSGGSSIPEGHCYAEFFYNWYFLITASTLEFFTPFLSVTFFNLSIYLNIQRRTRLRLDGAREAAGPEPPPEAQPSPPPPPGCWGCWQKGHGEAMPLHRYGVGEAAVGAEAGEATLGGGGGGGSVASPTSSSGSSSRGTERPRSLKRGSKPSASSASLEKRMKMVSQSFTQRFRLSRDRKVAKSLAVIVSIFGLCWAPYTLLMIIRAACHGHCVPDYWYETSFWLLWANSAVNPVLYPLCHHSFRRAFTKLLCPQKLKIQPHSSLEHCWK

| SMILES | Ki |
| --- | --- |
| CNCCc1c[nH]cn1 [N(alpha)-Methylhistamine] | 0.5 nM |
| CN(C)CCCSC(=N)N [[3-(carbamimidoylsulfanyl)propyl]dimethylamine] | 825 nM |
| CN/C([CH-][N+](=O)[O-])=[NH+]\CCSCc1ccc(CN(C)C)o1 | > 10000 nM |

More lines, now with the values ahead:

| Ki | SMILES |
| --- | --- |
| 67 nM | Cc1[nH]cnc1CSCCNC(=N)NCCCc1c[nH]cn1 [2-[3-(1H-imidazol-5-yl)propyl]-1-(2-{[(5-methyl-1H-imidazol-4-yl)methyl]sulfanyl}ethyl)guanidine] |
| 84 nM | CNC(=S)NCCCCc1cnc[nH]1 [1-[4-(1H-imidazol-5-yl)butyl]-3-methylthiourea] |
| 0.3 nM | N=C(N)SCCc1cnc[nH]1 [2-(3H-imidazol-4-yl)ethylsulfanylmethanimidamide] |

target: Histamine H4 receptor (Homo sapiens, UniProt Q9H3N8)

| SMILES | Ki |
| --- | --- |
| c1nc(CC2CCNCC2)c[nH]1 [4-(1H-imidazol-4-ylmethyl)piperidine] | 9 nM |
| CN1CCC(=C2c3ccccc3C=Cc3ccccc32)CC1 [5-(1-methylpiperidylidene-4)-5H-dibenzo(a,d)cyclopheptene] | > 10000 nM |
| CNCCc1c[nH]cn1 [N(alpha)-Methylhistamine] | 23 nM |
| CN/C(=N/CCSCc1nc[nH]c1C)NC#N | > 10000 nM |
| C[C@@H](N)Cc1c[nH]cn1 | 146 nM |
| CN/C([CH-][N+](=O)[O-])=[NH+]\CCSCc1ccc(CN(C)C)o1 | > 10000 nM |
| NC(=NCc1ccc(Cl)cc1)SCCCc1cnc[nH]1 [VUF 9153] | 12.8 nM |

Second part, the molecule after the results:

| Ki | SMILES |
| --- | --- |
| 12.3 nM | Cc1[nH]cnc1CSCCNC(=N)NCCCc1c[nH]cn1 [2-[3-(1H-imidazol-5-yl)propyl]-1-(2-{[(5-methyl-1H-imidazol-4-yl)methyl]sulfanyl}ethyl)guanidine] |
| > 10000 nM | N#Cc1ccc(OCCCN2CCCCC2)cc1 [UCL-2138] |
| 2.7 nM | N=C(N)SCCc1cnc[nH]1 [2-(3H-imidazol-4-yl)ethylsulfanylmethanimidamide] |

From BindingDB's records for doi:10.1124/mol.59.3.420 (The R. W. Johnson Pharmaceutical Research Institute, 2001)
